System: 217524-143-R1-J4-PDC spheroids with HUVEC/MSC, viability
Test: Anticancer human tumor 217524-143-R1-J4-PDC patient-derived pancreatic carcinoma cell line growth inhibition [CLK]
Conditions: for IC50: curve of first compound; for viability, T/C: stronger effect = lower value
Summary of the method: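 Multi-cell-type spheroids combined patient-derived tumor cells with HUVEC endothelial cells and human mesenchymal stem cells. Paired agents were dosed in half-log steps down from about clinical Cmax, or from 10 microM where Cmax was unknown.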

[1] = second compound 0.0316 µM, first compound 0.0316 µM
[2] = second compound 0.0316 µM, first compound 0.1 µM
[3] = second compound 0.0316 µM, first compound 0.316 µM
[4] = second compound 0.0316 µM, first compound 1 µM
[5] = second compound 0.0316 µM, first compound 3.16 µM
[6] = second compound 0.0316 µM, first compound 10 µM
[7] = second compound 0.1 µM, first compound 0.0316 µM
[8] = second compound 0.1 µM, first compound 0.1 µM
[9] = second compound 0.1 µM, first compound 0.316 µM
[10] = second compound 0.1 µM, first compound 1 µM
[11] = second compound 0.1 µM, first compound 3.16 µM
[12] = second compound 0.1 µM, first compound 10 µM
[13] = second compound 0.316 µM, first compound 0.0316 µM
[14] = second compound 0.316 µM, first compound 0.1 µM
[15] = second compound 0.316 µM, first compound 0.316 µM
[16] = second compound 0.316 µM, first compound 1 µM
[17] = second compound 0.316 µM, first compound 3.16 µM
[18] = second compound 0.316 µM, first compound 10 µM
[19] = second compound 1 µM, first compound 0.0316 µM
[20] = second compound 1 µM, first compound 0.1 µM
[21] = second compound 1 µM, first compound 0.316 µM
[22] = second compound 1 µM, first compound 1 µM
[23] = second compound 1 µM, first compound 3.16 µM
[24] = second compound 1 µM, first compound 10 µM
[25] = second compound 3.16 µM, first compound 0.0316 µM
[26] = second compound 3.16 µM, first compound 0.1 µM
[27] = second compound 3.16 µM, first compound 0.316 µM
[28] = second compound 3.16 µM, first compound 1 µM
[29] = second compound 3.16 µM, first compound 3.16 µM
[30] = second compound 3.16 µM, first compound 10 µM
[31] = second compound 10 µM, first compound 0.0316 µM
[32] = second compound 10 µM, first compound 0.1 µM
[33] = second compound 10 µM, first compound 0.316 µM
[34] = second compound 10 µM, first compound 1 µM
[35] = second compound 10 µM, first compound 3.16 µM
[36] = second compound 10 µM, first compound 10 µM
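Also: spheroids exposed to agents for seven days before reading.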
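For viability, T/C in this document: 100% = DMSO vehicle control viability.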

SMILES: CC(=O)O[C@H]1C(=O)[C@@]2(C)[C@H]([C@H](OC(=O)c3ccccc3)[C@]3(O)C[C@H](OC(=O)[C@H](O)[C@@H](NC(=O)c4ccccc4)c4ccccc4)C(C)=C1C3(C)C)[C@]1(OC(C)=O)CO[C@@H]1C[C@@H]2O + CN1CCN(c2cc(C(=O)Nc3cc4cc(-c5cnn(C)c5)ccc4cn3)ccn2)CC1
- IC50 (second compound 0.0316 µM): < 31.6 nM
- IC50 (second compound 0.1 µM): < 31.6 nM
- IC50 (second compound 0.316 µM): < 31.6 nM
- IC50 (second compound 1 µM): < 31.6 nM
- IC50 (second compound 3.16 µM): < 31.6 nM
- IC50 (second compound 10 µM): < 31.6 nM
- viability, T/C [1]: 14.5%
- viability, T/C [2]: 10.6%
- viability, T/C [3]: 10.8%
- viability, T/C [4]: 11.5%
- viability, T/C [5]: 12.1%
- viability, T/C [6]: 16.4%
- viability, T/C [7]: 11.9%
- viability, T/C [8]: 12.1%
- viability, T/C [9]: 9.82%
- viability, T/C [10]: 10.7%
- viability, T/C [11]: 10.8%
- viability, T/C [12]: 13.2%
- viability, T/C [13]: 11.1%
- viability, T/C [14]: 11.3%
- viability, T/C [15]: 10.7%
- viability, T/C [16]: 9.41%
- viability, T/C [17]: 11.7%
- viability, T/C [18]: 12.3%
- viability, T/C [19]: 1.11%
- viability, T/C [20]: 1.3%
- viability, T/C [21]: 1.35%
- viability, T/C [22]: 1.2%
- viability, T/C [23]: 2%
- viability, T/C [24]: 1.13%
- viability, T/C [25]: 0.88%
- viability, T/C [26]: 0.73%
- viability, T/C [27]: 0.55%
- viability, T/C [28]: 0.62%
- viability, T/C [29]: 1.1%
- viability, T/C [30]: 0.74%
- viability, T/C [31]: 0.12%
- viability, T/C [32]: 0.17%
- viability, T/C [33]: 0.16%
- viability, T/C [34]: 0.2%
- viability, T/C [35]: 0.34%
- viability, T/C [36]: 0.24%

SMILES: COc1ccc([C@@H](O)c2cc(-c3ncnc4cc(N5CCOCC5)ccc34)c(F)cc2Cl)nn1 + CN1CCN(c2cc(C(=O)Nc3cc4cc(-c5cnn(C)c5)ccc4cn3)ccn2)CC1
- IC50 (second compound 0.0316 µM): 285 nM
- IC50 (second compound 0.1 µM): < 31.6 nM
- IC50 (second compound 0.316 µM): < 31.6 nM
- IC50 (second compound 1 µM): < 31.6 nM
- IC50 (second compound 3.16 µM): < 31.6 nM
- IC50 (second compound 10 µM): < 31.6 nM
- viability, T/C [1]: 70.4%
- viability, T/C [2]: 59.8%
- viability, T/C [3]: 46.9%
- viability, T/C [4]: 38.5%
- viability, T/C [5]: 26.1%
- viability, T/C [6]: 10.6%
- viability, T/C [7]: 39.6%
- viability, T/C [8]: 50.7%
- viability, T/C [9]: 29.8%
- viability, T/C [10]: 24.4%
- viability, T/C [11]: 16.2%
- viability, T/C [12]: 10%
- viability, T/C [13]: 18.1%
- viability, T/C [14]: 18.4%
- viability, T/C [15]: 15%
- viability, T/C [16]: 13.4%
- viability, T/C [17]: 10.7%
- viability, T/C [18]: 6.07%
- viability, T/C [19]: 1.28%
- viability, T/C [20]: 0.91%
- viability, T/C [21]: 1.1%
- viability, T/C [22]: 0.93%
- viability, T/C [23]: 0.91%
- viability, T/C [24]: 0.91%
- viability, T/C [25]: 0.52%
- viability, T/C [26]: 0.54%
- viability, T/C [27]: 0.73%
- viability, T/C [28]: 0.44%
- viability, T/C [29]: 1.02%
- viability, T/C [30]: 1.29%
- viability, T/C [31]: 0.08%
- viability, T/C [32]: 0.12%
- viability, T/C [33]: 0.21%
- viability, T/C [34]: 0.18%
- viability, T/C [35]: 0.22%
- viability, T/C [36]: 0.36%

SMILES: COc1cccc2c1C(=O)c1c(O)c3c(c(O)c1C2=O)CC(O)(C(=O)CO)CC3OC1CC(N)C(O)C(C)O1 (stereo not given) + CN1CCN(c2cc(C(=O)Nc3cc4cc(-c5cnn(C)c5)ccc4cn3)ccn2)CC1
- IC50 (second compound 0.0316 µM): < 31.6 nM
- IC50 (second compound 0.1 µM): < 31.6 nM
- IC50 (second compound 0.316 µM): < 31.6 nM
- IC50 (second compound 1 µM): < 31.6 nM
- IC50 (second compound 3.16 µM): < 31.6 nM
- IC50 (second compound 10 µM): < 31.6 nM
- viability, T/C [1]: 31.5%
- viability, T/C [2]: 22.6%
- viability, T/C [3]: 18.3%
- viability, T/C [4]: 12.8%
- viability, T/C [5]: 3.21%
- viability, T/C [6]: 1.12%
- viability, T/C [7]: 23.1%
- viability, T/C [8]: 19.4%
- viability, T/C [9]: 13.4%
- viability, T/C [10]: 11.9%
- viability, T/C [11]: 2.23%
- viability, T/C [12]: 1.21%
- viability, T/C [13]: 15.5%
- viability, T/C [14]: 11.4%
- viability, T/C [15]: 6.94%
- viability, T/C [16]: 3.93%
- viability, T/C [17]: 1.19%
- viability, T/C [18]: 1.44%
- viability, T/C [19]: 0.79%
- viability, T/C [20]: 1.09%
- viability, T/C [21]: 0.55%
- viability, T/C [22]: 0.99%
- viability, T/C [23]: 1.55%
- viability, T/C [24]: 2.46%
- viability, T/C [25]: 0.79%
- viability, T/C [26]: 0.89%
- viability, T/C [27]: 0.61%
- viability, T/C [28]: 0.96%
- viability, T/C [29]: 1.17%
- viability, T/C [30]: 0.55%
- viability, T/C [31]: 0.18%
- viability, T/C [32]: 0.12%
- viability, T/C [33]: 0.13%
- viability, T/C [34]: 0.13%
- viability, T/C [35]: 0.11%
- viability, T/C [36]: 0.12%

SMILES: CCCS(=O)(=O)Nc1ccc(F)c(C(=O)c2c[nH]c3ncc(-c4ccc(Cl)cc4)cc23)c1F + CNC(=O)c1ccc(Nc2nc(OC3CCCC3)c3c(-c4ccc5nc(C)oc5c4)c[nH]c3n2)c(OC)c1
- IC50 (second compound 0.0316 µM): > 10000 nM
- IC50 (second compound 0.1 µM): < 31.6 nM
- IC50 (second compound 0.316 µM): < 31.6 nM
- IC50 (second compound 1 µM): < 31.6 nM
- IC50 (second compound 3.16 µM): < 31.6 nM
- IC50 (second compound 10 µM): < 31.6 nM
- viability, T/C [1]: 76.2%
- viability, T/C [2]: 83%
- viability, T/C [3]: 99.1%
- viability, T/C [4]: 130%
- viability, T/C [5]: 139%
- viability, T/C [6]: 57.1%
- viability, T/C [7]: 40.1%
- viability, T/C [8]: 49.2%
- viability, T/C [9]: 49.9%
- viability, T/C [10]: 67.3%
- viability, T/C [11]: 76.6%
- viability, T/C [12]: 40.1%
- viability, T/C [13]: 41.5%
- viability, T/C [14]: 38.8%
- viability, T/C [15]: 45.6%
- viability, T/C [16]: 58.1%
- viability, T/C [17]: 59.2%
- viability, T/C [18]: 31.2%
- viability, T/C [19]: 35.1%
- viability, T/C [20]: 35.1%
- viability, T/C [21]: 46.9%
- viability, T/C [22]: 45%
- viability, T/C [23]: 49.3%
- viability, T/C [24]: 24.1%
- viability, T/C [25]: 32.1%
- viability, T/C [26]: 31.6%
- viability, T/C [27]: 34.6%
- viability, T/C [28]: 47.6%
- viability, T/C [29]: 42.1%
- viability, T/C [30]: 17.6%
- viability, T/C [31]: 29.6%
- viability, T/C [32]: 26.5%
- viability, T/C [33]: 38.7%
- viability, T/C [34]: 34.9%
- viability, T/C [35]: 42%
- viability, T/C [36]: 18%

SMILES: COC1C=CCC(C)C(C)S(=O)(=O)NC(=O)c2ccc3c(c2)N(CC2CCC21)CC1(CCCc2cc(Cl)ccc21)CO3 (stereo not given) + CNC(=O)c1ccc(Nc2nc(OC3CCCC3)c3c(-c4ccc5nc(C)oc5c4)c[nH]c3n2)c(OC)c1
- IC50 (second compound 0.0316 µM): 7690 nM
- IC50 (second compound 0.1 µM): < 31.6 nM
- IC50 (second compound 0.316 µM): < 31.6 nM
- IC50 (second compound 1 µM): < 31.6 nM
- IC50 (second compound 3.16 µM): < 31.6 nM
- IC50 (second compound 10 µM): < 31.6 nM
- viability, T/C [1]: 83.2%
- viability, T/C [2]: 91.3%
- viability, T/C [3]: 95.8%
- viability, T/C [4]: 114%
- viability, T/C [5]: 108%
- viability, T/C [6]: 35.6%
- viability, T/C [7]: 46.6%
- viability, T/C [8]: 43.9%
- viability, T/C [9]: 72.9%
- viability, T/C [10]: 75.3%
- viability, T/C [11]: 91.2%
- viability, T/C [12]: 33.1%
- viability, T/C [13]: 34.2%
- viability, T/C [14]: 38.8%
- viability, T/C [15]: 39.4%
- viability, T/C [16]: 29.6%
- viability, T/C [17]: 31.9%
- viability, T/C [18]: 33.7%
- viability, T/C [19]: 30.1%
- viability, T/C [20]: 29.3%
- viability, T/C [21]: 27.4%
- viability, T/C [22]: 22.1%
- viability, T/C [23]: 20.9%
- viability, T/C [24]: 24.2%
- viability, T/C [25]: 26.9%
- viability, T/C [26]: 25.1%
- viability, T/C [27]: 22.3%
- viability, T/C [28]: 20.6%
- viability, T/C [29]: 23.5%
- viability, T/C [30]: 23.9%
- viability, T/C [31]: 29.8%
- viability, T/C [32]: 21%
- viability, T/C [33]: 17.9%
- viability, T/C [34]: 18.5%
- viability, T/C [35]: 17.5%
- viability, T/C [36]: 22.3%

From PubChem BioAssay AID2060624 (Molecular Pharmacology Branch, DTP, NCI, 2025)
